Experiments:
glutathione [1] = test: Tissue glutathione levels after intraperitoneal administration of sulfoximines; format: in vivo, mouse; conditions: for % Decrease in glutathione / Glutathione level: 2 mmol/Kg i.p.
Description: Male mice (Swiss Webster) were fasted overnight (about 16 hr). L-3-methylbuthionine-SR-sulfoximine (3 mBSO; L-S-3-methylbutyl homocysteine-SR-sulfoximine; L-S-isopentyl homocysteine-SR-sulfoximine), L-buthionine-SR-sulfoximine(BSO; L-S-butyl homocysteine-SR-sulfoximine), L-2-methylbuthiomine-SR-sulfoximine (2 mBSO, L-S-2methylbutyl homocysteine-SR-sulfoximine), or saline (0.9% NaCl) were administered to mice at 2 mmol/Kg intraperitoneally (50 mM, Ph ^~ 7). At the times indicated, plasma and tissues were obtained and assayed for glutathione (GSH+1/2 GSSG) as described by Anderson, Methods in Enzymology, 1985, 113:548-555.

[2] = target: T1, γ-Glutamylcysteine Synthetase (Rattus norvegicus, UniProt P19468); test: Inhibition of γ-glutamylcysteine synthetase (preincubation assay); format: biochemical; conditions: for Ki: 30 min preincubation, 22° C., read-out: Kiapp, Concentration for 50% Inhibition; for inhibition of γ-glutamylcysteine synthetase (in words): ranking compared with BSO
T1 construct: Rat kidney γ-Glutamylcysteine synthetase was purified from Sprague Dawley (Taconic Farms) rats; from tissue; host or cells: rat kidney (Sprague Dawley, Taconic Farms)
T1 sequence (P19468 1-637): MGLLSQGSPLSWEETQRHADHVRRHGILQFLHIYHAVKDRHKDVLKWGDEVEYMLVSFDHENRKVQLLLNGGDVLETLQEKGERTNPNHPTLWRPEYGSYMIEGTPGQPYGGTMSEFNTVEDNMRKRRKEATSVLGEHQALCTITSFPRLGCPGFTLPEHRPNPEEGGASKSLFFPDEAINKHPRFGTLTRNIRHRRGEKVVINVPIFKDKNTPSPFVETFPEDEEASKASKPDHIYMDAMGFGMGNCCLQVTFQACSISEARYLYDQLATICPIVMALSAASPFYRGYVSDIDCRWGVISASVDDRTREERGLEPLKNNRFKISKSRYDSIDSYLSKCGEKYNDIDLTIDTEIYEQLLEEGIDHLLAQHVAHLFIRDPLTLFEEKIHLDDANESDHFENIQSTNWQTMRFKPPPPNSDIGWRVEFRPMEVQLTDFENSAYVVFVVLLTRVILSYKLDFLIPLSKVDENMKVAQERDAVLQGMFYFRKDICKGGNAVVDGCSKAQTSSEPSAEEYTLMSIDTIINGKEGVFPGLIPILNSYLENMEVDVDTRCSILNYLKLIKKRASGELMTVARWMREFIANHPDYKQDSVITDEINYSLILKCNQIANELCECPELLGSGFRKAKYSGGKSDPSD
T1 sequence (P48508 1-274 partner): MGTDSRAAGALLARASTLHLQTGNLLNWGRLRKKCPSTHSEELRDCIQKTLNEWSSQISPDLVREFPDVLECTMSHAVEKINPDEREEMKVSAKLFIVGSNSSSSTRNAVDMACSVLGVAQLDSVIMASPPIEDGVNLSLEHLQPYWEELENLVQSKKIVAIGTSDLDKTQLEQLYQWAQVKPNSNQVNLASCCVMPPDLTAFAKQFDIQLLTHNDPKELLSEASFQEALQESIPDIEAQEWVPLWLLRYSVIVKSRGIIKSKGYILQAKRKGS
Description: Rat kidney γ-Glutamylcysteine synthetase was purified from Sprague Dawley (Taconic Farms) rats (Seelig., Methods in Enzymology, 1985, 113:379-390).
The preincubation assay of γ-glutamylcysteine synthetase is given below. γ-Glutamylcysteine synthetase (4.6 units) was added to a mixture (final volume, 50 μl) containing 100 mM Tris/HCl (pH 8.2), 5 mM ATP, 20 mM MgCl2, 0.2 mM EDTA, and the sulfoximine being evaluated. After incubation at 22° C. for 30 minutes, a 45 μl aliquot of the preincubation mixture was added to the assay as follows.
γ-Glutamylcysteine synthetase was assayed as follows (Griffith et al, J. Biological Chem., 1979, 254:1205-1210). The reaction mixture (final volume, 1.0 ml) contained 100 mM Tris/HCl (pH 8.2), 120 mM KCl, 5 mM phosphoenolpyruvate, 20 mM MgCl2, 10 mM sodium L-glutamate, 10 mM L-α-aminobutyric acid, 0.2 mM EDTA, 0.4 mM NADH, pyruvate kinase (10 IU), and lactate dehydrogenase (10 IU). The reaction (37° C.) was initiated by the addition of γ-glutamylcysteine synthetase and the oxidation of NADH, equivalent to ADP formation, was recorded at 340 nm.

[3] = tested on: mouse L1210 leukemia cells; conditions: cited from earlier work
[4] = Detection of compound in mouse bile; format: in vivo
glutathione [5] = test: Tissue glutathione after oral administration of sulfoximines (Table 5); format: in vivo, mouse; conditions: 2 mmol/kg
Description: Male mice (Swiss Webster) were fasted overnight (about 16 hr.) L-buthionine-SR-sulfoximine (BSO, S-n-butyl homocysteine-SR-sulfoximine), L-S-cyclohexylmethyl homocysteine-SR-sulfoximine (CHMSO); L-S-2-ethylbutylhomocysteine-SR-sulfoximine (2 EtBSO, L-S-2-ethylbutyl homocysteine-SR-sulfoximine, or saline (0.9% NaCl) were administered to mice at 2 mmol/Kg by intubation (100 mM; pH about 1 with HCl (200 mM). At the times indicated, plasma and tissues were obtained and assayed for glutathione (GSH+1/2 GSSG) as described by Anderson, Methods in Enzymology, 1985, 113:548-555. (See Table 4 and 5.)

| SMILES | % Decrease in glutathione (glutathione [1]; brain, 2 hr) [%] | Glutathione level (glutathione [1]; brain, 2 hr) [µmol/g] | % Decrease in glutathione (glutathione [1]; brain, 12 hr) [%] | Glutathione level (glutathione [1]; brain, 12 hr) [µmol/g] | % Decrease in glutathione (glutathione [1]; heart, 2 hr) [%] | Glutathione level (glutathione [1]; heart, 2 hr) [µmol/g] | % Decrease in glutathione (glutathione [1]; heart, 12 hr) [%] | Glutathione level (glutathione [1]; heart, 12 hr) [µmol/g] | % Decrease in glutathione (glutathione [1]; kidney, 2 hr) [%] | Glutathione level (glutathione [1]; kidney, 2 hr) [µmol/g] | % Decrease in glutathione (glutathione [1]; kidney, 12 hr) [%] | Glutathione level (glutathione [1]; kidney, 12 hr) [µmol/g] | % Decrease in glutathione (glutathione [1]; liver, 2 hr) [%] | Glutathione level (glutathione [1]; liver, 2 hr) [µmol/g] | % Decrease in glutathione (glutathione [1]; liver, 12 hr) [%] | Glutathione level (glutathione [1]; liver, 12 hr) [µmol/g] | % Decrease in glutathione (glutathione [1]; plasma, 2 hr) [%] | Glutathione level (glutathione [1]; plasma, 2 hr) [µM] | % Decrease in glutathione (glutathione [1]; plasma, 12 hr) [%] | Ki [2] [µM] | other results |
| --- | --- | --- | --- | --- | --- | --- | --- | --- | --- | --- | --- | --- | --- | --- | --- | --- | --- | --- | --- | --- | --- |
| CCC(C)CS(=N)(=O)CC[C@H](N)C(=O)O (stereo partly drawn) [2m BSO, L-S-2methylbutyl homocysteine-SR-sulfoximine] | 5 | 2.19 | 0 | 2.18 | 14 | 1.15 | 8 | 1.19 | 25 | 2.08 | 0 | 4.10 | 18 | 4.49 | 0 | 5.05 | 15 | 25.2 | 8 | 18.4 | Glutathione level (glutathione [1]; plasma, 12 hr): 26.3 µM |
| N[C@@H](Cc1ccc(N(CCCl)CCCl)cc1)C(=O)O [phenylalanine mustard] |  |  |  |  |  |  |  |  |  |  |  |  |  |  |  |  |  |  |  |  | dose needed to kill the most resistant cells versus most sensitive cell lines [3]: substantially higher; conversion of phenylalanine mustard by resistant cells ([3]; glutathione-dependent dehydrochlorination): converted phenylalanine mustard to a non-toxic hydroxy derivative |
| N=S(=O)(CC[C@H](N)C(=O)O)CC1CCCCC1 (stereo partly drawn) [CHMSO, L-S-cyclohexylmethyl homocysteine-SR-sulfoximine] |  |  |  |  |  |  |  |  |  |  |  |  |  |  |  |  |  |  |  | 3.8 | inhibition of γ-glutamylcysteine synthetase (in words) [2]: best inhibitors, about equal to BSO; detection in mouse bile [4]: CHMSO was detected; decrease in brain glutathione levels (glutathione [5]; 12 hours, experimental error about 5%): no decrease; decrease in glutathione levels (cardio-toxicity) (glutathione [5]; 2 hours, mice): 8% |
| CC(C)CCS(=N)(=O)CC[C@H](N)C(=O)O (stereo partly drawn) [3m BSO, L-S-3-methylbutyl homocysteine-SR-sulfoximine] | 10 | 2.09 | 10 | 1.92 | 16 | 1.13 | 57 | 0.55 | 81 | 0.73 | 53 | 1.69 | 77 | 1.26 | 22 | 3.86 | 64 | 10.6 | 30 | 0.6 | depletion of liver glutathione compared with BSO (glutathione [1]; liver, after 2 hr): more effective than BSO; Glutathione level (glutathione [1]; plasma, 12 hr): 19.2 µM; inhibition of γ-glutamylcysteine synthetase (in words) [2]: best inhibitors, about equal to BSO |
| CCC(CC)CS(=N)(=O)CC[C@H](N)C(=O)O (stereo partly drawn) [2ETBSO, L-S-2-ethylbutyl homocysteine-SR-sulfoximine] |  |  |  |  |  |  |  |  |  |  |  |  |  |  |  |  |  |  |  | 43.3 |  |

Source: patent publication US5476966A, “Method for depletion of glutathione” (Cornell Research Foundation, Inc., priority 1995, dated 1995)
